Experimental data as given in article PMC8774682, “Inhibitory Mechanism of Baicalein on Acetylcholinesterase: Inhibitory Interaction, Conformational Change, and Computational Simulation” (Foods, 2022).
Read-outs that look alike come from different tables or passages of the source.

How the values were obtained:
AChE [1] = biological target: T1, AChE (Electrophorus electricus, UniProt O42275); experiment: AChE activity assay (Ellman's method, modified); format: biochemical
T1 construct: purchased Sigma-Aldrich Co. (St. Louis, MO, USA)
Protocol: AChE (137 U/mg, Electrophorus electricus) was provided by Sigma-Aldrich Co. (St. Louis, MO, USA), and their stock solutions with 10 U/mL concentrations were prepared with 0.1 M phosphate-buffered saline (pH 7.6) and stored at −20 °C. Baicalein (purity ≥ 98%) was obtained from the National Institute for the Control of Pharmaceutical and Biological Products (Beijing, China) and dissolved in ethanol to prepare the stock solution (5 mM). 5,5-Dithiobis-(2-nitrobenzoic acid) (DTNB), acetylthiocholine iodide (ATCI), galathamine hydrobromide, and 3-(4, 5-dimethylthiazol-2-yl)-2,5-diphenyltetrazolium bromide (MTT) were provided by Aladdin Chemistry Co., Ltd. (Shanghai, China). Foetal bovine serum (FBS) was purchased from Gibco (Carlsbad, CA, USA). Dulbecco’s modified Eagle’s medium (DMEM), trypsin, and other cell culture reagents were purchased from Solarbio (Beijing, China). All remaining reagents were of analytical grade.
AChE activity was evaluated per Ellman’s method, albeit with a slight modification. Quartz cuvettes (3 mL) were utilised for measuring the assay mixture activity. Solutions containing varying amounts of baicalein, phosphate-buffered saline (0.1 M, pH 7.6), and 50 µL of AChE (2 U/mL, 3.4 × 10^−8 M) were cultivated in 30 min at 25 °C. After the pre-incubation period, 50 μL of 5, 5-dithiobis-(2-nitrobenzoic) acid (DNTB, 5 mM) was added. The reaction was then initiated with 50 μL of acetylthiocholine iodide (ATCI, 15 mM). The absorbance at 412 nm was monitored every 5 s with the TU−1901 dual-beam UV–Vis Spectrophotometer (Persee; Beijing, China). The samples were measured thrice, and the average value was considered. Enzyme activity without baicalein was identified to be 100%. […] Galantamine hydrobromide served as the positive control.

AChE [2] = biological target: T1, AChE; experiment: Kinetic analysis of the inhibitory type (Lineweaver–Burk plots, v vs. AChE plots); format: biochemical
From the text: The Lineweaver–Burk plots and Michaelis–Menten enzyme kinetics were applied to analyse the inhibitory type. For competitive type inhibition, the dynamic double reciprocal equation was used as follows:(1) 1/v=Km/vmax(1+(I) /Ki)1/(S)+1/vmax (2) Kmapp=Km(I)/Ki+Km where (I) and (S) denote the inhibitor and substrate concentrations, respectively; ν represents the enzyme reaction rate irrespective of the presence of baicalein; νmax is the maximum catalytic reaction rate; Ki, Km, and Kmapp stand for the inhibition constant, Michaelis−Menten constant, and apparent Michaelis constant, respectively.

AChE [3] = biological target: T1, AChE; experiment: Time-course test of AChE inactivation kinetics; format: biochemical
Protocol: The kinetic process and rate constants for enzyme inactivation were determined through the time-course test. Baicalein with concentrations of 2, 4, 8, and 16 µM was used for analysing the time-course. Enzyme activity at each concentration was measured every 3 min for 0–30 min, every 6 min for 30–60 min, and then at 70 and 80 min.

AChE [4] = biological target: T1, AChE; experiment: Fluorescence quenching and synchronous fluorescence of AChE; format: binding
Protocol: A spectrofluorometer (model F-7000; Hitachi, Tokyo, Japan) containing a thermostat bath was used to measure the fluorescence spectra. The AChE solution (2.5 mL; 0.17 µM) was introduced into a 1.0 cm path length quartz cell, followed by titration through the successive addition of 2.0 mM of diluted baicalein solution (to obtain the concentration range of 0–16 µM). The well-mixed solutions were set aside for three min for equilibration purposes. The fluorescence spectra were measured in the 290–450 nm range, and the relevant excitation wavelength set was 280 nm at 25 °C, 31°C, and 37 °C. Excitation and emission bandwidths were 2.5 nm. In addition, synchronous fluorescence spectra for AChE with baicalein were conducted by fixing the interval of excitation and emission wavelength constants at 15 nm and 60 nm. Fluorescence data were amended according to our previous reports to erase the re-absorption possibility and the inner filter effects of UV absorption.
The binding constant (Ka) for the AChE–bacalein complex and the binding site number (n) were measured using Equation (3):(3) logF0−F/F=nlogKa−nlog1/(Qt)−(F0−F)(Pt)/F0
In general, four noncovalent interaction forces exist between small molecules and macromolecules, namely hydrogen bonds, van der Waals forces, electrostatic forces, and hydrophobic interactions. To identify the binding forces between bacalein and AChE, the thermodynamic parameters were measured following the Van’t Hoff equation:(4) logKa=−ΔH°/2.303RT+ΔS°/2.303R (5) ΔG°=ΔH°−TΔS° where Ka denotes the binding constant, and R represents the gas constant (8.314 J mol^−1 K^−1). The temperatures (T) used were 25 °C, 31 °C, and 37 °C.

AChE [5] = biological target: T1, AChE; experiment: Far-UV CD spectra, secondary structure of AChE; conditions: c(AChE) = 0.75 µM
Protocol: Far-UV CD spectra were measured using a spectrometer (MOS 450 CD; Bio-Logic, Claix, France) with a 1.0 mm path length quartz cuvette. All the spectra were measured in the 200–240 nm range at 25 °C, and the associated scan speed was 60 nm min^−1. The AChE in the PBS was completely blended with baicalein at varying concentrations and then equilibrated for three min before CD measurements. The spectra were amended by subtracting the spectrum of the buffer with that of baicalein at the same concentration as the sample solution. Three scans were conducted, and the ellipticity in millidegrees indicated the results. The contents of the discrepant secondary structures (α-helix, β-sheet, β-turn, and random coil) from AChE were measured based on CD spectroscopic data following the online SELCON3 program (http://dichroweb.cryst.bbk.ac.uk/html/home.shtml. Accessed on: 18 August 2021).

PC12 cells = experiment: Cytotoxicity in PC12 cells (MTT assay); format: cell-based; conditions: 1–80 µM, 24 h
Protocol: PC12 cells were purchased from the NanJing KeyGen Biotech Co. Ltd. (Nanjing, China). These cells were cultivated in high-glucose DMEM supplemented with 10% FBS, 100 U/mL of penicillin and 100 µg/mL of streptomycin at 37 °C under a humidified 5% CO2 atmosphere. Baicalein was dissolved in DMSO to prepare a 5 mM stock solution and diluted with serum-free media before use. PC12 cells were seeded into a 96-well plate at the density of 2 × 10 ^4 cells/well (100 μL) and cultured for 24 h. Next, the medium was changed, and the cells were treated with baicalein at 0, 1, 10, 20, 40, and 80 µM. Each concentration had six replicate wells, and the culture was continued for 24 h. To determine the effect of baicalein on cell viability, 20 µL of MTT (5 mg/mL) was added to each well. After 4 h, the resulting formazan crystals were dissolved by adding 150 μL of DMSO for 10–15 min. The absorption (O.D.) of each hole at 570 nm wavelength was measured using an enzyme-labelled instrument (Varioskan LUX; Thermo Fisher Scientific, Waltham, MA, USA). Cell viability was expressed as the percentage of the control.

[6] = Van't Hoff equation, 25, 31, 37 °C

T1 sequence (O42275 24-633): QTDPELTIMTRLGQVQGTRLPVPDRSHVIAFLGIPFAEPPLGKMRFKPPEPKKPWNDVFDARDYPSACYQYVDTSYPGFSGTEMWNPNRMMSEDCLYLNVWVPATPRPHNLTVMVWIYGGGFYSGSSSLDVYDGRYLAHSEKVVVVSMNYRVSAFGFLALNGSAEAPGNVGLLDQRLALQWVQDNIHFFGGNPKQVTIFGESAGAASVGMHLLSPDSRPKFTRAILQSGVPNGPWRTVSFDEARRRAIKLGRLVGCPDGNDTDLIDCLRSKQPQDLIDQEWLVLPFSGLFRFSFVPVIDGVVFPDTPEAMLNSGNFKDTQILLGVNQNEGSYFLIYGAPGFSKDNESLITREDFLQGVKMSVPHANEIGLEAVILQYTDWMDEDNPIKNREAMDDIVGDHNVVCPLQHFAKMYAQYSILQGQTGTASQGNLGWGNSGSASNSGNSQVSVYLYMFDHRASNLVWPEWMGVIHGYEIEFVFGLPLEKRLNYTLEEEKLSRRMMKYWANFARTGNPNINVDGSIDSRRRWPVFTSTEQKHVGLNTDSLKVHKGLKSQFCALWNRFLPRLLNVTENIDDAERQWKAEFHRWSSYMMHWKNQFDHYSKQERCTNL

O=c1cc(-c2ccccc2)oc2cc(O)c(O)c(O)c12 [baicalein, 5,6,7-trihydroxyflavone]
IC50 (AChE [1]): 6.42 ± 0.07 µM | inhibition at 26.7 µM (AChE [1]; read-out: final inhibition rate of AChE activity): 90% | Ki (AChE [2]; Lineweaver–Burk, baicalein 0, 4, 8, 10 µM, c(AChE) = 0.57 nM, read-out: Ki (inhibition constant)): 4.32 ± 0.26 µM | inhibition type (AChE [2]; double reciprocal plots intersect on the Y axis): competitive | inhibition reversibility (AChE [2]; plots of v vs. AChE concentration, baicalein 0-16 µM): reversible | Inactivation rate constant k (AChE [3]; baicalein 2 µM): 1.48 ± 0.03 ×10^−4 s^−1 | Inactivation rate constant k (AChE [3]; baicalein 4 µM): 2.42 ± 0.05 ×10^−4 s^−1 | Inactivation rate constant k (AChE [3]; baicalein 8 µM): 4.01 ± 0.02 ×10^−4 s^−1 | Inactivation rate constant k (AChE [3]; baicalein 16 µM): 5.18 ± 0.08 ×10^−4 s^−1 | bimolecular quenching constant Kq, magnitude order (AChE [4]; 25-37 °C): ~10^13 L mol^−1 s^−1 | Kd (AChE [4]; 25-37 °C, read-out: binding constant, order of magnitude): ~100 µM | binding site number n (AChE [4]; 25 °C): 0.88 ± 0.01 | quenching constant KSV (AChE [4]; 25 °C): 6.45 ± 0.02 ×10^4 L mol^−1 | ∆G° (AChE [4]; 25 °C): -5.428 ± 0.014 kcal/mol | Kd (AChE [4]; 25 °C, read-out: binding constant Ka (converted)): 15 µM | binding site number n (AChE [4]; 31 °C): 0.93 ± 0.03 | quenching constant KSV (AChE [4]; 31 °C): 5.78± 0.03 ×10^4 L mol^−1 | ∆G° (AChE [4]; 31 °C): -5.457 ± 0.0072 kcal/mol | Kd (AChE [4]; 31 °C, read-out: binding constant Ka (converted)): 17.1 µM | binding site number n (AChE [4]; 37 °C): 1.13 ± 0.02 | quenching constant KSV (AChE [4]; 37 °C): 5.22± 0.07 ×10^4 L mol^−1 | ∆G° (AChE [4]; 37 °C): -5.483 ± 0.019 kcal/mol | Kd (AChE [4]; 37 °C, read-out: binding constant Ka (converted)): 19.6 µM | ∆H° (AChE [4]; [6]): -4.065 ± 0.0048 kcal/mol | ∆S° (AChE [4]; [6]): 19.15 ± 0.09 J mol^−1 K^−1 | synchronous fluorescence quenching ratio RSFQ, Tyr residues (AChE [4]; Δλ = 15 nm, baicalein up to 16.0 μM, c(AChE) = 0.17 µM): 58.48% | synchronous fluorescence quenching ratio RSFQ, Trp residues (AChE [4]; Δλ = 60 nm, baicalein up to 16.0 μM, c(AChE) = 0.17 µM): 63.83% | Random coil content of AChE (AChE [5]; molar ratio baicalein:AChE 2:1): 25.36 ± 0.29% | α-Helix content of AChE (AChE [5]; molar ratio baicalein:AChE 2:1): 38.82 ± 0.08% | β-Sheet content of AChE (AChE [5]; molar ratio baicalein:AChE 2:1): 14.57 ± 0.13% | β-Turn content of AChE (AChE [5]; molar ratio baicalein:AChE 2:1): 21.42 ± 0.57% | Random coil content of AChE (AChE [5]; molar ratio baicalein:AChE 6:1): 21.71 ± 0.47% | α-Helix content of AChE (AChE [5]; molar ratio baicalein:AChE 6:1): 42.53 ± 0.35% | β-Sheet content of AChE (AChE [5]; molar ratio baicalein:AChE 6:1): 7.73 ± 0.03% | β-Turn content of AChE (AChE [5]; molar ratio baicalein:AChE 6:1): 28.15 ± 0.89% | cytotoxicity (cell viability, MTT) (PC12 cells): nontoxic

O=C(O)[C@H]1O[C@@H](Oc2cc3oc(-c4ccccc4)cc(=O)c3c(O)c2O)[C@H](O)[C@@H](O)[C@@H]1O [baicalin, reference compound]
IC50 (AChE [1]): 204 ± 16.5 µM
